Assay results from article PMC6440464 (PeerJ, 2019).
Where “and” joins values, the source holds several entries; their conditions need not be identical. Identical values can stand only once.

Assay: Stability of the analytes in rat plasma QC samples at different storage conditions
Format: in vitro ADME
Conditions: for Post-preparation stability (4℃ for 24 h) Measured Conc.: extracted plasma samples in auto sampler rack; for Post-preparation stability (4℃ for 24 h) Measured Conc. / Free-thaw stability (3 free-thaw cycles) Measured Conc. / Long-term stability (-80℃ for 15 d) Measured Conc. / Short-term stability (25℃ for 12 h) Measured Conc.: n=5; for Free-thaw stability, Test Conc., AV / Free-thaw stability, Test Conc. / Post-preparation stability, Test Conc., AV / Post-preparation stability, Test Conc. / Short-term stability, Test Conc., AV / Short-term stability, Test Conc. / Long-term stability, Test Conc., AV / Long-term stability, Test Conc.: plasma; for Free-thaw stability, Test Conc., AV / Free-thaw stability, Test Conc.: 3 free-thaw cycles; for Free-thaw stability, Test Conc., AV / Post-preparation stability, Test Conc., AV / Short-term stability, Test Conc., AV / Long-term stability, Test Conc., AV: AV of 5 replicates; for Free-thaw stability, Test Conc. / Post-preparation stability, Test Conc. / Short-term stability, Test Conc. / Long-term stability, Test Conc.: single replicates NO.1-NO.5; for Post-preparation stability, Test Conc., AV / Post-preparation stability, Test Conc.: 4℃ for 24 h; for Short-term stability, Test Conc., AV / Short-term stability, Test Conc.: 25℃ for 12 h; for Long-term stability, Test Conc., AV / Long-term stability, Test Conc.: -80℃ for 15 d; for Free-thaw stability (3 free-thaw cycles) Measured Conc. / Long-term stability (-80℃ for 15 d) Measured Conc. / Short-term stability (25℃ for 12 h) Measured Conc.: rat plasma
Method: The stabilities of Qr, IQ, and QG in plasma were assessed by analyzing QC samples at different storage conditions. The stabilities of three flavonoids in plasma were studied by analyzing three concentration levels of QC samples (n = 5) at room temperature (25 °C) for 12 h, at long-term storage (−80 °C for 15 days), after three freeze (−80 °C) and thaw (room temperature) cycles, and at auto sampler rack storage (4 °C for 24 h).

[1] = high QC, nominal 8400.0 (Qr), 976.0 (IQ), 10000.0 (QG) ng/mL
[2] = low QC, nominal 65.6 (Qr), 48.8 (IQ), 100.0 (QG) ng/mL
[3] = nominal Conc. 48.80 ng/mL, listed as Isoquercitrin (IQ)
[4] = nominal Conc. 244.00 ng/mL, listed as Isoquercitrin (IQ)
[5] = nominal Conc. 976.00 ng/mL, listed as Isoquercitrin (IQ)
[6] = medium QC, nominal 525.0 (Qr), 244.0 (IQ), 1000.0 (QG) ng/mL
[7] = nominal Conc. 65.63 ng/mL, listed as Quercetin (Qr)
[8] = nominal Conc. 525.00 ng/mL, listed as Quercetin (Qr)
[9] = nominal Conc. 8400.00 ng/mL, listed as Quercetin (Qr)

**Q.** Which results are given for `O=c1c(O[C@@H]2O[C@H](CO)[C@@H](O)[C@H](O)[C@H]2O)c(-c2ccc(O)c(O)c2)oc2cc(O)cc(O)c12` [IQ, Isoquercitrin]?
**A.** Post-preparation stability (4℃ for 24 h) Measured Conc. [1]: 937.6 ± 55.4 ng/mL; Post-preparation stability (4℃ for 24 h) Measured Conc. [2]: 45.3 ± 1.4 ng/mL; Post-preparation stability (4℃ for 24 h) Measured Conc.: 255.6 ± 16.0 ng/mL; Free-thaw stability, Test Conc., AV (nominal Conc. 48.80 ng/mL): 50.35 ng/mL; Free-thaw stability, Test Conc. [3]: 49.95 ng/mL and 49.90 ng/mL and 50.70 ng/mL and 48.08 ng/mL and 53.12 ng/mL; Free-thaw stability, Test Conc., AV (nominal Conc. 244.00 ng/mL): 242.47 ng/mL; Free-thaw stability, Test Conc. [4]: 230.75 ng/mL and 211.89 ng/mL and 256.83 ng/mL and 252.00 ng/mL and 260.86 ng/mL; Free-thaw stability, Test Conc., AV (nominal Conc. 976.00 ng/mL): 1028.98 ng/mL; Free-thaw stability, Test Conc. [5]: 934.23 ng/mL and 1056.62 ng/mL and 1064.04 ng/mL and 1091.46 ng/mL and 998.55 ng/mL; Post-preparation stability, Test Conc., AV (nominal Conc. 48.80 ng/mL): 45.28 ng/mL; Post-preparation stability, Test Conc. [3]: 45.29 ng/mL and 43.89 ng/mL and 47.57 ng/mL and 44.33 ng/mL and 45.34 ng/mL; Post-preparation stability, Test Conc., AV (nominal Conc. 244.00 ng/mL): 255.64 ng/mL; Post-preparation stability, Test Conc. [4]: 246.59 ng/mL and 233.24 ng/mL and 257.98 ng/mL and 268.81 ng/mL and 271.60 ng/mL; Post-preparation stability, Test Conc., AV (nominal Conc. 976.00 ng/mL): 937.62 ng/mL; Post-preparation stability, Test Conc. [5]: 857.22 ng/mL and 1007.33 ng/mL and 922.61 ng/mL and 936.47 ng/mL and 964.48 ng/mL; Short-term stability, Test Conc., AV (nominal Conc. 48.80 ng/mL): 51.25 ng/mL; Short-term stability, Test Conc. [3]: 51.42 ng/mL and 50.11 ng/mL and 53.70 ng/mL and 49.73 ng/mL and 51.28 ng/mL; Short-term stability, Test Conc., AV (nominal Conc. 244.00 ng/mL): 228.97 ng/mL; Short-term stability, Test Conc. [4]: 224.99 ng/mL and 229.24 ng/mL and 227.58 ng/mL and 250.98 ng/mL and 212.08 ng/mL; Short-term stability, Test Conc., AV (nominal Conc. 976.00 ng/mL): 902.68 ng/mL; Short-term stability, Test Conc. [5]: 885.52 ng/mL and 865.13 ng/mL and 936.37 ng/mL and 947.50 ng/mL and 878.89 ng/mL; Long-term stability, Test Conc., AV (nominal Conc. 48.80 ng/mL): 43.53 ng/mL; Long-term stability, Test Conc. [3]: 40.64 ng/mL and 40.98 ng/mL and 46.59 ng/mL and 45.84 ng/mL and 43.59 ng/mL; Long-term stability, Test Conc., AV (nominal Conc. 244.00 ng/mL): 226.97 ng/mL; Long-term stability, Test Conc. [4]: 232.85 ng/mL and 226.55 ng/mL and 237.44 ng/mL and 224.60 ng/mL and 213.40 ng/mL; Long-term stability, Test Conc., AV (nominal Conc. 976.00 ng/mL): 947.77 ng/mL; Long-term stability, Test Conc. [5]: 1047.44 ng/mL and 988.88 ng/mL and 924.76 ng/mL and 931.40 ng/mL and 846.39 ng/mL; Free-thaw stability (3 free-thaw cycles) Measured Conc. [1]: 1029.0 ± 62.9 ng/mL; Long-term stability (-80℃ for 15 d) Measured Conc. [1]: 947.8 ± 75.3 ng/mL; Short-term stability (25℃ for 12 h) Measured Conc. [1]: 902.7 ± 36.8 ng/mL; Free-thaw stability (3 free-thaw cycles) Measured Conc. [2]: 50.4 ± 1.8 ng/mL; Long-term stability (-80℃ for 15 d) Measured Conc. [2]: 43.5 ± 2.7 ng/mL; Short-term stability (25℃ for 12 h) Measured Conc. [2]: 51.3 ± 1.6 ng/mL; Free-thaw stability (3 free-thaw cycles) Measured Conc. [6]: 242.5 ± 20.7 ng/mL; Long-term stability (-80℃ for 15 d) Measured Conc. [6]: 227.0 ± 9.1 ng/mL; Short-term stability (25℃ for 12 h) Measured Conc. [6]: 229.0 ± 14.0 ng/mL

**Q.** For `O=c1c(O)c(-c2ccc(O)c(O)c2)oc2cc(O)cc(O)c12` [Qr, Quercetin], which “Post-preparation stability (4℃ for 24 h) Measured Conc.” value [1] is on record?
**A.** 7642.7 ± 675.6 ng/mL

**Q.** What about the “Post-preparation stability (4℃ for 24 h) Measured Conc.” value [2] of the same molecule?
**A.** 61.0 ± 4.5 ng/mL

**Q.** What about the “Post-preparation stability (4℃ for 24 h) Measured Conc.” value of the same molecule?
**A.** 526.3 ± 60.5 ng/mL

**Q.** What about the “Free-thaw stability, Test Conc., AV” value (nominal Conc. 65.63 ng/mL) of the same molecule?
**A.** 65.26 ng/mL

**Q.** What about the “Free-thaw stability, Test Conc.” value [7] of the same molecule?
**A.** 66.42 ng/mL and 58.78 ng/mL and 57.77 ng/mL and 73.55 ng/mL and 69.78 ng/mL

**Q.** What about the “Free-thaw stability, Test Conc., AV” value (nominal Conc. 525.00 ng/mL) of the same molecule?
**A.** 511.91 ng/mL

**Q.** And the “Free-thaw stability, Test Conc.” value [8]?
**A.** 492.92 ng/mL and 484.10 ng/mL and 471.66 ng/mL and 550.36 ng/mL and 560.49 ng/mL

**Q.** And the “Free-thaw stability, Test Conc., AV” value (nominal Conc. 8400.00 ng/mL)?
**A.** 8631.34 ng/mL

**Q.** What about the “Free-thaw stability, Test Conc.” value [9] of the same molecule?
**A.** 7999.32 ng/mL and 7943.88 ng/mL and 8238.72 ng/mL and 9682.68 ng/mL and 9292.08 ng/mL

**Q.** And the “Post-preparation stability, Test Conc., AV” value (nominal Conc. 65.63 ng/mL)?
**A.** 61.04 ng/mL

**Q.** And the “Post-preparation stability, Test Conc.” value [7]?
**A.** 58.85 ng/mL and 54.07 ng/mL and 64.70 ng/mL and 64.32 ng/mL and 63.25 ng/mL

**Q.** What about the “Post-preparation stability, Test Conc., AV” value (nominal Conc. 525.00 ng/mL) of the same molecule?
**A.** 526.26 ng/mL

**Q.** What about the “Post-preparation stability, Test Conc.” value [8] of the same molecule?
**A.** 568.94 ng/mL and 459.48 ng/mL and 463.10 ng/mL and 552.93 ng/mL and 586.85 ng/mL

**Q.** And the “Post-preparation stability, Test Conc., AV” value (nominal Conc. 8400.00 ng/mL)?
**A.** 7642.66 ng/mL

**Q.** What about the “Post-preparation stability, Test Conc.” value [9] of the same molecule?
**A.** 6882.12 ng/mL and 7943.04 ng/mL and 7529.76 ng/mL and 8629.32 ng/mL and 7229.04 ng/mL

**Q.** What about the “Short-term stability, Test Conc., AV” value (nominal Conc. 65.63 ng/mL) of the same molecule?
**A.** 60.80 ng/mL

**Q.** And the “Short-term stability, Test Conc.” value [7]?
**A.** 57.16 ng/mL and 57.07 ng/mL and 64.40 ng/mL and 62.26 ng/mL and 63.12 ng/mL

**Q.** And the “Short-term stability, Test Conc., AV” value (nominal Conc. 525.00 ng/mL)?
**A.** 474.02 ng/mL

**Q.** What about the “Short-term stability, Test Conc.” value [8] of the same molecule?
**A.** 478.01 ng/mL and 472.87 ng/mL and 443.05 ng/mL and 442.10 ng/mL and 534.08 ng/mL

**Q.** What about the “Short-term stability, Test Conc., AV” value (nominal Conc. 8400.00 ng/mL) of the same molecule?
**A.** 7949.42 ng/mL

**Q.** What about the “Short-term stability, Test Conc.” value [9] of the same molecule?
**A.** 8294.16 ng/mL and 7882.56 ng/mL and 8019.48 ng/mL and 7925.40 ng/mL and 7625.52 ng/mL

**Q.** What about the “Long-term stability, Test Conc., AV” value (nominal Conc. 65.63 ng/mL) of the same molecule?
**A.** 59.99 ng/mL

**Q.** And the “Long-term stability, Test Conc.” value [7]?
**A.** 54.24 ng/mL and 60.01 ng/mL and 62.03 ng/mL and 66.54 ng/mL and 57.14 ng/mL

**Q.** What about the “Long-term stability, Test Conc., AV” value (nominal Conc. 525.00 ng/mL) of the same molecule?
**A.** 500.71 ng/mL

**Q.** And the “Long-term stability, Test Conc.” value [8]?
**A.** 493.55 ng/mL and 501.01 ng/mL and 547.68 ng/mL and 448.04 ng/mL and 513.29 ng/mL

**Q.** What about the “Long-term stability, Test Conc., AV” value (nominal Conc. 8400.00 ng/mL) of the same molecule?
**A.** 7982.86 ng/mL

**Q.** What about the “Long-term stability, Test Conc.” value [9] of the same molecule?
**A.** 7842.24 ng/mL and 9005.64 ng/mL and 8321.88 ng/mL and 7922.88 ng/mL and 6821.64 ng/mL

**Q.** And the “Free-thaw stability (3 free-thaw cycles) Measured Conc.” value [1]?
**A.** 8631.3 ± 801.3 ng/mL

**Q.** What about the “Long-term stability (-80℃ for 15 d) Measured Conc.” value [1] of the same molecule?
**A.** 7982.9 ± 795.7 ng/mL

**Q.** And the “Short-term stability (25℃ for 12 h) Measured Conc.” value [1]?
**A.** 7949.4 ± 241.7 ng/mL

**Q.** And the “Free-thaw stability (3 free-thaw cycles) Measured Conc.” value [2]?
**A.** 65.3 ± 6.9 ng/mL

**Q.** What about the “Long-term stability (-80℃ for 15 d) Measured Conc.” value [2] of the same molecule?
**A.** 60.0 ± 4.7 ng/mL

**Q.** And the “Short-term stability (25℃ for 12 h) Measured Conc.” value [2]?
**A.** 60.8 ± 3.5 ng/mL

**Q.** What about the “Free-thaw stability (3 free-thaw cycles) Measured Conc.” value [6] of the same molecule?
**A.** 511.9 ± 40.6 ng/mL

**Q.** And the “Long-term stability (-80℃ for 15 d) Measured Conc.” value [6]?
**A.** 500.7 ± 36.0 ng/mL

**Q.** And the “Short-term stability (25℃ for 12 h) Measured Conc.” value [6]?
**A.** 474.0 ± 37.4 ng/mL
